We go through 23 molecules from patent US8288552B2, “Dihydropyridone amidesas P2X7 modulators” (Roche Palo Alto LLC, priority 2008, dated 2012).

The structures appear in SMILES notation.

Broadly, the pKi is the negative decadic logarithm of the Ki, by convention in mol/L. Read a low pKi as a high Ki.

The target in the test is T1, P2X7 (UniProt Q99572).
T1 sequence (Q99572 1-595): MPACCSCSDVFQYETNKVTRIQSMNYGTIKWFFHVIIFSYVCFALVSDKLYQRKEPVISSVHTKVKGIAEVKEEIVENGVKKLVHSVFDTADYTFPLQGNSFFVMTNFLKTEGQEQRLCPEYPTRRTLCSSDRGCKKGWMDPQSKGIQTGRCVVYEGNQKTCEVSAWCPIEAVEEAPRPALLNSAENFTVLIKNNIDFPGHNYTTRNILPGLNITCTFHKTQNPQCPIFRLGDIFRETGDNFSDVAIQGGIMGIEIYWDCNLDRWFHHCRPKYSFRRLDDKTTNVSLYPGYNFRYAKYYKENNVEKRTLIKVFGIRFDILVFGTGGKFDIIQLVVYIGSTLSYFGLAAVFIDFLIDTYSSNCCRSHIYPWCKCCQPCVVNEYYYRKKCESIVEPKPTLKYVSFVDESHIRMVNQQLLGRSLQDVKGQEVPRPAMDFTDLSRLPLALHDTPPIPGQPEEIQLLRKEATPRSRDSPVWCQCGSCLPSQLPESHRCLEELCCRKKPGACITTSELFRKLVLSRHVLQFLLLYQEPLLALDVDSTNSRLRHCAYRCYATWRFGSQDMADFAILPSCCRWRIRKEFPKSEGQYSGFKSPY
Put plainly: P2X7 pKi of Table 1. The test is classed as cell-based. The method, boiled down: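 Human P2X7 in 1321N1 cells and rat P2X7 in HEK293 cells, loaded with fluo-3 for 1 hr at 37° C, then exposed to antagonist for 20 min at room temperature. BzATP agonist was used at 100 μM final (human) or 5 μM final (rat), with fluorescence read for 5 min. The response was normalized to maximal fluorescence evoked by 5 μM ionomycin.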
In turn, `Cc1cc(F)c(OCCO)cc1NC(=O)C1=CN(C)C(=O)C[C@H]1c1ccc(F)cc1` [Compound 143, (S)-4-(4-Fluoro-phenyl)-1-methyl-6-oxo-1,4,5,6-tetrahydro-pyridine-3-carboxylic acid[4-fluoro-5-(2-hydroxy-ethoxy)-2-methyl-phenyl]-amide] had a pKi of 6.535.
With `COc1cc(C)c(NC(=O)C2=CNC(=O)CC2c2cccc(F)c2)cc1OC` (centres unmarked) [Compound 24, 4-(3-Fluoro-phenyl)-6-oxo-1,4,5,6-tetrahydro-pyridine-3-carboxylic acid(4,5-dimethoxy-2-methyl-phenyl)-amide] the figure was 7.69.
As to `Cc1cc(Cl)c(OCCO)cc1NC(=O)C1=CNC(=O)C[C@H]1c1cccc(F)c1` [Compound 72, (S)-4-(3-Fluoro-phenyl)-6-oxo-1,4,5,6-tetrahydro-pyridine-3-carboxylic acid[4-chloro-5-(2-hydroxy-ethoxy)-2-methyl-phenyl]-amide], the pKi was found to be 7.8375.
With `CC(=O)COc1cc(NC(=O)C2=CNC(=O)C[C@H]2c2cccc(F)c2)c(C)cc1F` [Compound 85, (S)-4-(3-Fluoro-phenyl)-6-oxo-1,4,5,6-tetrahydro-pyridine-3-carboxylic acid[4-fluoro-2-methyl-5-(2-oxo-propoxy)-phenyl]-amide] the figure was 6.705; with `Cc1c(Cl)cccc1NC(=O)C1=CNC(=O)C[C@H]1c1ccc(F)cc1` [Compound 94, (S)-4-(4-Fluoro-phenyl)-6-oxo-1,4,5,6-tetrahydro-pyridine-3-carboxylic acid(3-chloro-2-methyl-phenyl)-amide], 7.83.
Turning to `Cc1ccc(Cl)c(NC(=O)C2=CNC(=O)CC2c2cccc(F)c2)c1F` (centres unmarked) [Compound 26, 4-(3-Fluoro-phenyl)-6-oxo-1,4,5,6-tetrahydro-pyridine-3-carboxylic acid(6-chloro-2-fluoro-3-methyl-phenyl)-amide], the pKi is 5.73.
On to `Cc1cc(Cl)c(OCC(=O)N(C)C)cc1NC(=O)C1=CNC(=O)C[C@H]1c1ccc(F)cc1` [Compound 130, (S)-4-(4-Fluoro-phenyl)-6-oxo-1,4,5,6-tetrahydro-pyridine-3-carboxylic acid(4-chloro-5-dimethylcarbamoyl-methoxy-2-methyl-phenyl)-amide], for which the pKi turned out to be 7.2767.
With `COc1cc(NC(=O)C2=CNC(=O)CC2c2ccc(F)cc2)ccc1Cl` (centres unmarked) [Compound 10, 4-(4-Fluoro-phenyl)-6-oxo-1,4,5,6-tetrahydro-pyridine-3-carboxylic acid(4-chloro-3-methoxy-phenyl)-amide] the figure was 5.543.
Regarding `COc1cc(NC(=O)C2=CNC(=O)CC2c2ccc(F)cc2)ccc1C` (centres unmarked) [Compound 11, 4-(4-Fluoro-phenyl)-6-oxo-1,4,5,6-tetrahydro-pyridine-3 carboxylic acid(3-methoxy-4-methyl-phenyl)-amide], the pKi is 6.03.
As for `Cc1cc(Cl)c(OCCO)cc1NC(=O)C1=CN(C)C(=O)C[C@H]1c1ccc(F)cc1` [Compound 142, (S)-4-(4-Fluoro-phenyl)-1-methyl-6-oxo-1,4,5,6-tetrahydro-pyridine-3-carboxylic acid[4-chloro-5-(2-hydroxy-ethoxy)-2-methyl-phenyl]-amide], the figure is 6.835; as for `O=C1C[C@@H](c2ccc(F)cc2)C(C(=O)Nc2ccccc2C(F)(F)F)=CN1` [Compound 95, (S)-4-(4-Fluoro-phenyl)-6-oxo-1,4,5,6-tetrahydro-pyridine-3-carboxylic acid(2-trifluoromethyl-phenyl)-amide], 6.26.
As for `COc1cc(NC(=O)C2=CNC(=O)CC2c2ccccc2)c(Br)cc1Cl` (centres unmarked) [Compound 3, 6-Oxo-4-phenyl-1,4,5,6-tetrahydro-pyridine-3-carboxylic acid(2-bromo-4-chloro-5-methoxy-phenyl)-], the figure is 5.95.
As for `Cc1cc(Cl)c(CCO)cc1NC(=O)C1=CNC(=O)C[C@H]1c1ccc(F)cc1` [Compound 112, (S)-4-(4-Fluoro-phenyl)-6-oxo-1,4,5,6-tetrahydro-pyridine-3-carboxylic acid[4-chloro-5-(2-hydroxy-ethyl)-2-methyl-phenyl]-amide], the figure is 7.52.
The molecule `Cc1ccc([C@@H](C)O)cc1NC(=O)C1=CNC(=O)C[C@H]1c1ccc(F)cc1` [Compound 89, (S)-4-(4-Fluoro-phenyl)-6-oxo-1,4,5,6-tetrahydro-pyridine-3-carboxylic acid[5-((R)-1-hydroxy-ethyl)-2-methyl-phenyl]-amide] came in with a pKi of 7.443.
With `Cc1cc(C)c(Br)c(NC(=O)C2=CNC(=O)C[C@@H]2c2ccc(F)cc2)c1` [Compound 59, (R)-4-(4-Fluoro-phenyl)-6-oxo-1,4,5,6-tetrahydro-pyridine-3-carboxylic acid(2-bromo-3,5-dimethyl-phenyl)-amide] the figure was 7.57; with `Cc1ccc(C(N)=O)cc1NC(=O)C1=CNC(=O)C[C@H]1c1ccc(F)cc1` [Compound 135, (S)-4-(4-Fluoro-phenyl)-6-oxo-1,4,5,6-tetrahydro-pyridine-3-carboxylic acid(5-carbamoyl-2-methyl-phenyl)-amide], 5.8767.
`O=C1CC(c2cccc(F)c2)C(C(=O)Nc2cc(Cl)ccc2OC(F)F)=CN1` (centres unmarked) [Compound 27, 4-(3-Fluoro-phenyl)-6-oxo-1,4,5,6-tetrahydro-pyridine-3-carboxylic acid(5-chloro-2-difluoromethoxy-phenyl)-amide] came in with a pKi of 5.18.
As for `COc1cc(NC(=O)C2=CNC(=O)CC2c2ccccc2)c(Br)cc1C` (centres unmarked) [Compound 2, 6-Oxo-4-phenyl-1,4,5,6-tetrahydro-pyridine-3-carboxylic acid(2-bromo-5-methoxy-4-methyl-phenyl)-amide], the figure is 6.595; as for `Cc1ccc(Cl)cc1NC(=O)C1=CNC(=O)C[C@H]1c1cccc(F)c1` [Compound 92, (S)-4-(3-Fluoro-phenyl)-6-oxo-1,4,5,6-tetrahydro-pyridine-3-carboxylic acid(5-chloro-2-methyl-phenyl)-amide], 6.995; as for `CCc1c(NC(=O)C2=CNC(=O)CC2c2ccc(F)cc2)cccc1OC` (centres unmarked) [Compound 102, 4-(4-Fluoro-phenyl)-6-oxo-1,4,5,6-tetrahydro-pyridine-3-carboxylic acid(2-ethyl-3-methoxy-phenyl)-amide], 7.316.
With `COc1cc(C)c(NC(=O)C2=CNC(=O)CC2c2ccc(Cl)cc2)cc1OC` (centres unmarked) [Compound 122, 4-(4-Chloro-phenyl)-6-oxo-1,4,5,6-tetrahydro-pyridine-3-carboxylic acid(4,5-dimethoxy-2-methyl-phenyl)-amide] the figure was 6.465.
Regarding `COc1cc(NC(=O)C2=CNC(=O)CC2c2ccc(F)cc2)c(Br)cc1C` (centres unmarked) [Compound 4, 4-(4-Fluoro-phenyl)-6-oxo-1,4,5,6-tetrahydro-pyridine-3-carboxylic acid(2-bromo-5-methoxy-4-methyl-phenyl)-amide], the pKi stood at 6.6.
Turning to `COc1cc(NC(=O)C2=CNC(=O)CC2c2cccc(F)c2)c(Br)cc1C` (centres unmarked) [Compound 5, 4-(3-Fluoro-phenyl)-6-oxo-1,4,5,6-tetrahydro-pyridine-3-carboxylic acid(2-bromo-5-methoxy-4-methyl-phenyl)-amide], the negative logarithm of the Ki (pKi) stood at 6.726.
